Patent US9078838B2, “Cosmetic or dermatological compositions comprising a mixture of essential oils, and its uses thereof, particularly for the care of sensitive or sensitized skin” (LVMH Recherche, priority 2008, dated 2015)
No end group written: not given here.

Test system: explants of human skin
Test: Release of histamine induced by CRH in explants of human skin (ex vivo cutaneous stress model, ELISA)
Type: cell-based
Description: To evaluate the activity of the combination of the invention on the release of histamine, which is an allergy mediator, a cutaneous stress model is reproduced ex vivo by applying a solution of CRH in the survival medium of explants of human skin.
Three explants of skin with a diameter of 8 mm are prepared from healthy human skin originating from surgical removal.
They are placed in 24-well plates and left to stand in an appropriate medium (MCDB 153, insulin, CaCl2, gentamycin) for 24 hours.
CRH (from Neosystem) is dissolved at a concentration of 231 μM in phosphate buffer (PBS) (pH 7.2).
First of all a 5% by weight (50 mg/ml) solution is prepared for each of the essential oils, in ethanol for the helichrysum oil and in DMSO for the cannabis oil.
The 5% by weight solutions are subsequently diluted at the time of use to 1/1000th in the survival medium of the explants, to give the different treatment solutions.
The combination of cannabis and helichrysum essential oils is tested in the form of a treatment solution containing these two essential oils, each at a concentration of 0.005% by weight (50:50 ratio). Each essential oil is likewise tested on its own in the form of a 0.005% by weight treatment solution.
In each well the explant is at the surface of the survival medium. […]

corticotropin-releasing hormone (SEEPPISLDLTFHLLREVLEMARAEQLAQQAHSNRKLMEII; not fully specified (C-terminus); ends and bridges not checked; UniProt P06850 154-194, looked up) [CRH, CRH (from Neosystem), stimulus of histamine release, positive control]
Stimulation of the release of histamine by skin explants (in words) (CRH on skin explants maintained in survival mode): induces significant stimulation of the release of histamine | Histamine (stimulated with CRH 7.7 μM for 2 hours, no essential oil pretreatment (positive control), solvent control 15.3 +/− 1.0): 21.8 ± 1.4 ng/mL
